Results published in US20240327412A1, “FACTOR XIIA INHIBITORS” (KALVISTA PHARMACEUTICALS LIMITED, priority 2021, published 2024).

These molecules were tested against T1, Human Factor XIIa (Homo sapiens, UniProt P00748) (assay: Determination of FXIIa inhibition (fluorogenic substrate H-DPro-Phe-Arg-AFC, IC50 assay)). Details: substrate at Km concentration, 25° C.; category scale; read-out: Human FXII IC50 (nm).
T1 construct: Proteolytic cleavage of FXII to heavy and light chains of FXIIa dramatically increases catalytic activity; purchased Enzyme Research Laboratories
T1 sequence (P00748 373-615 limits assumed): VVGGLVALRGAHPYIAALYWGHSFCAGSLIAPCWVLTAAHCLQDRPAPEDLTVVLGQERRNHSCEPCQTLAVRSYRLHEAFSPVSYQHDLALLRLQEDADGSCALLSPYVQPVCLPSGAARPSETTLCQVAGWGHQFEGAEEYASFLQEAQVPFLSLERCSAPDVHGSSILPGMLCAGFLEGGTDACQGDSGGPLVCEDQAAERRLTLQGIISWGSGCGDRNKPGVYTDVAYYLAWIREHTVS
T1 sequence (P00748 20-372 partner limits assumed): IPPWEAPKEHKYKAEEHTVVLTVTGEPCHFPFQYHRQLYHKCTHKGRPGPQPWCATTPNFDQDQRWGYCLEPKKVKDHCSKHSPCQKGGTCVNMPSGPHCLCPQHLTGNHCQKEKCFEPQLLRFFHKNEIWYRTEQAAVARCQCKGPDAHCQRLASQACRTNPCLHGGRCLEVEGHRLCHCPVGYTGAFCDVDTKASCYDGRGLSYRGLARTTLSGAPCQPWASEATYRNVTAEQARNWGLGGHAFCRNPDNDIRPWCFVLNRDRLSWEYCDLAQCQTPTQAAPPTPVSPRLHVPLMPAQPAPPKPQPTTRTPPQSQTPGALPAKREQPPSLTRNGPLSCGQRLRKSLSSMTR
Assay type: biochemical
How it was run: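 At substrate Km and 25° C., the rate of AFC release from H-DPro-Phe-Arg-AFC by human Factor XIIa was followed for 5 min across compound concentrations. Inhibition was derived as percent of uninhibited rate, giving IC50.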

Compound | IC50
Cn1ccc(OCC23CN(C(=O)OC(C)(C)C)C(CNc4cccc5c(N)nccc45)(C2)C3)cc1=O [Example 12027, tert-butyl 1-(((1-aminoisoquinolin-5-yl)amino)methyl)-4-(((1-methyl-2-oxo-1,2-dihydropyridin-4-yl)oxy)methyl)-2-azabicyclo[2.1.1]hexane-2-carboxylate] | 100 to 300 nM
Cn1ccc(OCC23CN(C(=O)Cc4ccccc4)C(CNc4cccc5c(N)nccc45)(C2)C3)cc1=O [Example 12028, 4-((1-(((1-aminoisoquinolin-5-yl)amino)methyl)-2-(2-phenylacetyl)-2-azabicyclo[2.1.1]hexan-4-yl)methoxy)-1-methylpyridin-2(1H)-one] | 10 to 100 nM
Cn1ccc(OCC23CN(c4nccc(-c5ccccc5)n4)C(CNc4cccc5c(N)nccc45)(C2)C3)cc1=O [Example 12031, 4-((1-(((1-aminoisoquinolin-5-yl)amino)methyl)-2-(4-phenylpyrimidin-2-yl)-2-azabicyclo[2.1.1]hexan-4-yl)methoxy)-1-methylpyridin-2(1H)-one] | 100 to 300 nM
Cn1ccc(OCC23CN(C(=O)Cc4ccc5occc5c4)C(CNc4cccc5c(N)nccc45)(C2)C3)cc1=O [Example 12034, 4-((1-(((1-Aminoisoquinolin-5-yl)amino)methyl)-2-(2-(benzofuran-5-yl)acetyl)-2-azabicyclo[2.1.1]hexan-4-yl)methoxy)-1-methylpyridin-2(1H)-one] | 10 to 100 nM
Cn1ccc(OCC23CN(C(=O)c4ccccc4)C(CNc4cccc5c(N)nccc45)(C2)C3)cc1=O [Example 12035, 4-((1-(((1-aminoisoquinolin-5-yl)amino)methyl)-2-benzoyl-2-azabicyclo[2.1.1]hexan-4-yl)methoxy)-1-methylpyridin-2(1H)-one] | 10 to 100 nM
Cc1cc(OCC23CN(C(=O)Cc4ccccc4)C(CNc4cccc5c(N)nccc45)(C2)C3)cc(=O)n1C [Example 12039, 4-((1-(((1-aminoisoquinolin-5-yl)amino)methyl)-2-(2-phenylacetyl)-2-azabicyclo[2.1.1]hexan-4-yl)methoxy)-1,6-dimethylpyridin-2(1H)-one] | 10 to 100 nM
Cn1ccc(OCC23CN(C(=O)Cc4cccc5[nH]ccc45)C(CNc4cccc5c(N)nccc45)(C2)C3)cc1=O [Example 12040, 4-((2-(2-(1H-indol-4-yl)acetyl)-1-(((1-aminoisoquinolin-5-yl)amino)methyl)-2-azabicyclo[2.1.1]hexan-4-yl)methoxy)-1-methylpyridin-2(1H)-one] | 10 to 100 nM
CN(Cc1ccccc1)C(=O)N1CC2(COc3ccn(C)c(=O)c3)CC1(CNc1cccc3c(N)nccc13)C2 [Example 12041, 1-[[(1-Amino-5-isoquinolyl)amino]methyl]-N-benzyl-N-methyl-4-[(1-methyl-2-oxo-4-pyridyl)oxymethyl]-2-azabicyclo[2.1.1]hexane-2-carboxamide] | 1 to 10 nM
COc1cccc(CCC(=O)N2CC3(COc4ccn(C)c(=O)c4)CC2(CNc2cccc4c(N)nccc24)C3)c1 [Example 12042, 4-((1-(((1-aminoisoquinolin-5-yl)amino)methyl)-2-(3-(3-methoxyphenyl)propanoyl)-2-azabicyclo[2.1.1]hexan-4-yl)methoxy)-1-methylpyridin-2(1H)-one] | 10 to 100 nM
Cn1ccc(OCC23CN(C(=O)CCc4cccc(C#N)c4)C(CNc4cccc5c(N)nccc45)(C2)C3)cc1=O [Example 12044, 3-(3-(1-(((1-aminoisoquinolin-5-yl)amino)methyl)-4-(((1-methyl-2-oxo-1,2-dihydropyridin-4-yl)oxy)methyl)-2-azabicyclo[2.1.1]hexan-2-yl)-3-oxopropyl)benzonitrile] | 10 to 100 nM
Cn1ccc(OCC23CN(C(=O)OC(C)(C)C)C(CNc4ccc5cnccc5c4)(C2)C3)cc1=O [Example 12045, tert-butyl 1-((isoquinolin-6-ylamino)methyl)-4-(((1-methyl-2-oxo-1,2-dihydropyridin-4-yl)oxy)methyl)-2-azabicyclo[2.1.1]hexane-2-carboxylate] | 10000 to 40000 nM
Cn1ccc(OCC23CN(C(=O)CCc4cccc5cnccc45)C(CNc4cccc5c(N)nccc45)(C2)C3)cc1=O [Example 12047, 4-((1-(((1-aminoisoquinolin-5-yl)amino)methyl)-2-(3-(isoquinolin-5-yl)propanoyl)-2-azabicyclo[2.1.1]hexan-4-yl)methoxy)-1-methylpyridin-2(1H)-one] | 10 to 100 nM
Cn1ccc(OCC23CN(C(=O)CCc4cccc(C(F)F)c4)C(CNc4cccc5c(N)nccc45)(C2)C3)cc1=O [Example 12048, 4-((1-(((1-aminoisoquinolin-5-yl)amino)methyl)-2-(3-(3-(difluoromethyl)phenyl)propanoyl)-2-azabicyclo[2.1.1]hexan-4-yl)methoxy)-1-methylpyridin-2(1H)-one] | 10 to 100 nM
Cn1ccc(OCC23CN(C(=O)CCc4cccc(Cl)c4)C(CNc4cccc5c(N)nccc45)(C2)C3)cc1=O [Example 12049, 4-((1-(((1-aminoisoquinolin-5-yl)amino)methyl)-2-(3-(3-chlorophenyl)propanoyl)-2-azabicyclo[2.1.1]hexan-4-yl)methoxy)-1-methylpyridin-2(1H)-one] | 10 to 100 nM
Cn1ccc(OCC23CN(C(=O)CCc4cccc(C(F)(F)F)c4)C(CNc4cccc5c(N)nccc45)(C2)C3)cc1=O [Example 12050, 4-((1-(((1-aminoisoquinolin-5-yl)amino)methyl)-2-(3-(3-(trifluoromethyl)phenyl)propanoyl)-2-azabicyclo[2.1.1]hexan-4-yl)methoxy)-1-methylpyridin-2(1H)-one] | 10 to 100 nM
Cn1ccc(OCC23CN(C(=O)CCc4cccc(C(=O)O)c4)C(CNc4cccc5c(N)nccc45)(C2)C3)cc1=O [Example 12051, 3-(3-(1-(((1-aminoisoquinolin-5-yl)amino)methyl)-4-(((1-methyl-2-oxo-1,2-dihydropyridin-4-yl)oxy)methyl)-2-azabicyclo[2.1.1]hexan-2-yl)-3-oxopropyl)benzoic acid] | 10 to 100 nM
Cn1ccc(OCC23CN(C(=O)CCc4cccc5ncccc45)C(CNc4cccc5c(N)nccc45)(C2)C3)cc1=O [Example 12052, 4-((1-(((1-aminoisoquinolin-5-yl)amino)methyl)-2-(3-(quinolin-5-yl)propanoyl)-2-azabicyclo[2.1.1]hexan-4-yl)methoxy)-1-methylpyridin-2(1H)-one] | 10 to 100 nM
Cn1ccc(OCC23CN(C(=O)CCc4cccc(Br)c4)C(CNc4cccc5c(N)nccc45)(C2)C3)cc1=O [Example 12053, 4-((1-(((1-aminoisoquinolin-5-yl)amino)methyl)-2-(3-(3-bromophenyl)propanoyl)-2-azabicyclo[2.1.1]hexan-4-yl)methoxy)-1-methylpyridin-2(1H)-one] | 10 to 100 nM
Cn1ccc(OCC23CN(C(=O)CCc4ccc(=O)[nH]c4)C(CNc4cccc5c(N)nccc45)(C2)C3)cc1=O [Example 12054, 4-((1-(((1-aminoisoquinolin-5-yl)amino)methyl)-2-(3-(6-oxo-1,6-dihydropyridin-3-yl)propanoyl)-2-azabicyclo[2.1.1]hexan-4-yl)methoxy)-1-methylpyridin-2(1H)-one] | 10 to 100 nM
Cn1ccc(OCC23CN(C(=O)CCc4ccc5cccnc5c4)C(CNc4cccc5c(N)nccc45)(C2)C3)cc1=O [Example 12055, 4-((1-(((1-aminoisoquinolin-5-yl)amino)methyl)-2-(3-(quinolin-7-yl)propanoyl)-2-azabicyclo[2.1.1]hexan-4-yl)methoxy)-1-methylpyridin-2(1H)-one] | 10 to 100 nM
Cn1ccc(OCC23CN(C(=O)CCc4cccc(OC(F)F)c4)C(CNc4cccc5c(N)nccc45)(C2)C3)cc1=O [Example 12056, 4-((1-(((1-aminoisoquinolin-5-yl)amino)methyl)-2-(3-(3-(difluoromethoxy)phenyl)propanoyl)-2-azabicyclo[2.1.1]hexan-4-yl)methoxy)-1-methylpyridin-2(1H)-one] | 10 to 100 nM
Cn1ccc(OCC23CN(c4nc5ccccc5o4)C(CNc4cccc5c(N)nccc45)(C2)C3)cc1=O [Example 12057, 4-((1-(((1-Aminoisoquinolin-5-yl)amino)methyl)-2-(benzo[d]oxazol-2-yl)-2-azabicyclo[2.1.1]hexan-4-yl)methoxy)-1-methylpyridin-2(1H)-one] | 1 to 10 nM
Cn1ccc(OCC23CN(C(=O)NCc4ccccc4F)C(CNc4cccc5c(N)nccc45)(C2)C3)cc1=O [Example 12058, 1-(((1-aminoisoquinolin-5-yl)amino)methyl)-N-(2-fluorobenzyl)-4-(((1-methyl-2-oxo-1,2-dihydropyridin-4-yl)oxy)methyl)-2-azabicyclo[2.1.1]hexane-2-carboxamide] | 10 to 100 nM
COc1ccccc1NC(=O)N1CC2(COc3ccn(C)c(=O)c3)CC1(CNc1cccc3c(N)nccc13)C2 [Example 12059, 1-(((1-aminoisoquinolin-5-yl)amino)methyl)-N-(2-methoxyphenyl)-4-(((1-methyl-2-oxo-1,2-dihydropyridin-4-yl)oxy)methyl)-2-azabicyclo[2.1.1]hexane-2-carboxamide] | 10 to 100 nM
